According to EP0672419A1, “BLOOD PRESSURE REGULATOR” (Asahi Kasei Kogyo Kabushiki Kaisha, priority 1991, dated 1995):

Tested on: adult mongrel dogs
Test: Induced hypotension in ten halothane-anesthetized dogs, average arterial blood pressure kept at 60 mmHg for 60 min (Example 6)
Format: in vivo, dog
Conditions: mean ± S.D.
Protocol: Adult mongrel dog, mean body weight 12.7 ± 3.1 kg, was anesthesized with pentobarbital 25 mg/kg, intratarcheally cannulated and maintained anesthetic condition by 0.87% halothane-oxygen (1 MAC, minimum anesthetic concentration). Respiration was controlled, by using respirator (Harvard Corp., Model 613E ) at Paco₂ 35±5 mmHg.
Catheters were introduced to right femoral vein and artery for monitering arterial blood pressure, arterial blood gas analysis and infusion, and left cardiac catheter was introduced to left femoral […] to monitor left ventricular pressure. The changes in left ventricular pressure were differentiated continuously using a pressure processor (Nihon Koden Co., EQ-601G) to measure a maximum left ventricular systolic ratio (LV dp/dt max). The active ingredient of the present invention was administered to left femoral vein. Pulmonary arterial catheter (7F, Swan-Ganz® catheter) was introduced through right external jugular vein to monitor pulmonary artery pressure (PAP), paulmonary arterial wedge pressure (pulmonary capillary wedge pressure, PCWP) and cardiac output (CO). Pressure was monitored by using disporsable pressure monitoring kit (Gould Corp.), and electrocardiogram, arteriala pressure, left ventricle pressure (LVP) and maximum left ventricular systolic ratio (LV dp/dt max) were monitored by polygraph (Nihon Koden Co.) . Cardiac output (CO) was measured by thermal dilution method using cardiac output monitor (Nihon Koden Co Model MTC6210). Blood gas analysis was made by using automatic blood gas analyser (Radiometer Corp. ABL3). Mean artery pressure (MAP), cardiac index(CI) stroke volume index (SI), systemic vascular resistance (SVR), pulmonary vascular resistance (PVR), left ventricle stroke work index (LVSWI) and coronary perfusion pressure (CPP) were calculated by standard calculation equations, respectively.
To maintain low blood pressure, the active ingredient was intraveneously administered for 60 minutes with maintaining maximum dose at 40 µg/kg and adjusting to maintain mean arteraial pressure at 50 mmHg. Physiological saline was used for maintenance infusion and administered in combination with the active ingredient at 7 ml/kg/hr. At blood sampling two fold volume of hydroxyethylstarch (6-HES) was supplementary administered. Body temperature was maintained at 37 ± 1°C by covering with blanket.
Example 5 was repeated by substantially almost same manner using ten adult mongrel dogs, mean body weight 14.7±2.1 kg, applying same anesthetic condition with maintaining artificially hypotensive with average arterial blood pressure at 60 mmHg for 60 min., and administering the active ingredient desalanyl-deamino-c-CGRP.
A value at time more than 60 minutes passed after completing the start of the experiment and stabilizing a depth of anesthesia and blood flow, was set as control (S₁). Monitorings were performed at 30 min. and 60 min. under reduced blood pressure in induced hypotension, and at 10 min. and 30 min. after terminating the reduced blood pressure in induced hypotension (after stopping administration), for totally five points of time.
Results are shown by mean ± S.D.
Amount of the active ingredient for maintaining average arterial blood pressure at 60 mmHg for 60 minutes was 5 µg-115 µg/kg.

[1] = after terminating reduced blood pressure 10 min.
[2] = after terminating reduced blood pressure 30 min.
[3] = reduced blood pressure 30 min., MAP kept at 60 mmHg

## desalanyl-deamino-c-CGRP
[1]
  CI: Cardiac index: 4.025±0.685 ** 1/min/m²
  CO: Cardiac output: 2.751±0.438 * 1/min
  CPP: Coronary perfusion pressure: 50.5±5.5 mmHg
  CVP: Central venous pressure: 2.9±1.5 mmHg
  DAP: Diastolic artery pressure: 59.2±5.1 mmHg
  DPAP: Diastolic pulmonary artery pressure: 11.3±5.2 mmHg
  EtCO₂: Expiration terminal CO₂ pressure: 39.5±5.8 mmHg
  HR: Heart rate: 158.8±33.8 beat/min
  LV dp/dt max: maximum left ventricular systolic ratio: 3370.0±783.2 mmHg/sec
  LVEP: Left ventricle end pressure: 0.1±0.3 mmHg
  LVP: Left ventricle pressure: 119.5±16.3 mmHg
  LVSWI: Left ventricle stroke work index: 23.970±6.998 g.m/beat/m²
  MAP: Mean artery pressure: 75.7±4.3 mmHg
  MPAP: Mean pulmonary artery pressure: 18.3±6.0 mmHg
  PCWP: Pulmonary capillary wedge pressure: 9.2±4.1 mmHg
  PVR: Pulmonary vascular resistance: 273.30±100.09 dynes · sec/cm⁵
  RPP: Rate pressure products: 14920.0±3480.0 mmHg.beat/min
  RVSWI: Right ventricle stroke work index: 5.209±1.501 g.m/beat/m²
  SAP: Systolic artery pressure: 94.4±7.2 mmHg
  SI: Stroke index: 26.300±6.720 ml/HR/m²
  SPAP: Systolic pulmonary artery pressure: 26.8±7.2 mmHg
  SV: Stroke volumes: 18.2 ± 5.63 mL/beat
  SVR: Systemic vascular resistance: 2162.0±419.2 dynes · sec/cm⁵
[2]
  CI: Cardiac index: 3.638±0.587 1/min/m²
  CO: Cardiac output: 2.487 ± 0.378 min⁻¹
  CPP: Coronary perfusion pressure: 63.5±5.3 mmHg
  CVP: Central venous pressure: 3.2±1.1 mmHg
  DAP: Diastolic artery pressure: 74.1±4.7 mmHg
  DPAP: Diastolic pulmonary artery pressure: 11.3±5.4 mmHg
  EtCO₂: Expiration terminal CO₂ pressure: 39.3±5.9 mmHg
  HR: Heart rate: 151.6±27.9 beat/min
  LV dp/dt max: maximum left ventricular systolic ratio: 3220.0±708.4 mmHg/sec
  LVEP: Left ventricle end pressure: 0.0±0.0 mmHg
  LVP: Left ventricle pressure: 132.3±20.0 mmHg
  LVSWI: Left ventricle stroke work index: 27.680±7.370 g.m/beat/m²
  MAP: Mean artery pressure: 92.8±6.3 mmHg
  MPAP: Mean pulmonary artery pressure: 18.7±6.3 mmHg
  PCWP: Pulmonary capillary wedge pressure: 10.6±4.5 mmHg
  PVR: Pulmonary vascular resistance: 269.10±109.58 dynes · sec/cm⁵
  RPP: Rate pressure products: 18100.0±3938.4 mmHg.beat/min
  RVSWI: Right ventricle stroke work index: 4.882±1.138 g.m/beat/m²
  SAP: Systolic artery pressure: 119.4±10.1 mmHg
  SI: Stroke index: 24.760±6.720 ml/HR/m²
  SPAP: Systolic pulmonary artery pressure: 27.4±7.2 mmHg
  SV: Stroke volumes: 17 ± 5.07 mL/beat
  SVR: Systemic vascular resistance: 2961.0±700.9 dynes · sec/cm⁵
[3]
  CI: Cardiac index: 3.418±0.692 1/min/m²
  CO: Cardiac output: 2.348 ± 0.528 min⁻¹
